Converted amounts (≈) assume the structure as drawn.
Experiments:
Jurkat = assay: Cytotoxicity against Jurkat cells; assay type: functional, cell-based; details: Homo sapiens
[1] = target: T1, cAMP-dependent protein kinase (PKA) (Homo sapiens) (UniProt P22694+P17612+P22612); assay: Inhibition of Protein kinase A mediated [gamma-32P]-ATP incorporation at 10 ug/mL; assay type: protein assay
[2] = target: T2, Protein kinase C (PKC) (Homo sapiens) (UniProt O94806+P41743+P17252+P05129+Q05655+P05771+Q05513+Q02156+P24723+Q15139+Q04759); assay: Inhibition of Protein kinase C mediated […]-ATP incorporation at 0.1 ug/mL; assay type: protein assay
[3] = target: T1, cAMP-dependent protein kinase (PKA) (Homo sapiens); assay: Inhibition of Protein kinase A mediated [gamma-32P]-ATP incorporation at 0.1 ug/mL; assay type: protein assay
[4] = target: T2, Protein kinase C (PKC) (Homo sapiens); assay: Inhibition of Protein kinase C mediated […]-ATP incorporation at 1 ug/mL; assay type: protein assay
[5] = target: T1, cAMP-dependent protein kinase (PKA) (Homo sapiens); assay: Inhibition of Protein kinase A mediated [gamma-32P]-ATP incorporation at 1 ug/mL; assay type: protein assay
[6] = target: T2, Protein kinase C (PKC) (Homo sapiens); assay: Inhibition of Protein kinase C mediated […]-ATP incorporation at 10 ug/mL; assay type: protein assay
HeLa = assay: Cytotoxicity against HeLa cells; assay type: functional, cell-based; details: Homo sapiens
[7] = Cytotoxicity against KB/VJ300 cells; assay type: functional, cell-based; details: Homo sapiens
[8] = target: Proto-oncogene tyrosine-protein kinase Src (Homo sapiens) (UniProt P12931); assay: Inhibition of protein tyrosine kinase mediated [gamma-32P]-ATP incorporation at 0.1 ug/mL in src-transformed NIH3T3
[9] = target: T3, Eukaryotic elongation factor 2 kinase (Homo sapiens) (UniProt O00418); assay: Inhibition of eukaryotic elongation factor-2 kinase mediated [gamma-32P]-ATP incorporation at 0.1 ug/mL
T3 sequence (whole entry): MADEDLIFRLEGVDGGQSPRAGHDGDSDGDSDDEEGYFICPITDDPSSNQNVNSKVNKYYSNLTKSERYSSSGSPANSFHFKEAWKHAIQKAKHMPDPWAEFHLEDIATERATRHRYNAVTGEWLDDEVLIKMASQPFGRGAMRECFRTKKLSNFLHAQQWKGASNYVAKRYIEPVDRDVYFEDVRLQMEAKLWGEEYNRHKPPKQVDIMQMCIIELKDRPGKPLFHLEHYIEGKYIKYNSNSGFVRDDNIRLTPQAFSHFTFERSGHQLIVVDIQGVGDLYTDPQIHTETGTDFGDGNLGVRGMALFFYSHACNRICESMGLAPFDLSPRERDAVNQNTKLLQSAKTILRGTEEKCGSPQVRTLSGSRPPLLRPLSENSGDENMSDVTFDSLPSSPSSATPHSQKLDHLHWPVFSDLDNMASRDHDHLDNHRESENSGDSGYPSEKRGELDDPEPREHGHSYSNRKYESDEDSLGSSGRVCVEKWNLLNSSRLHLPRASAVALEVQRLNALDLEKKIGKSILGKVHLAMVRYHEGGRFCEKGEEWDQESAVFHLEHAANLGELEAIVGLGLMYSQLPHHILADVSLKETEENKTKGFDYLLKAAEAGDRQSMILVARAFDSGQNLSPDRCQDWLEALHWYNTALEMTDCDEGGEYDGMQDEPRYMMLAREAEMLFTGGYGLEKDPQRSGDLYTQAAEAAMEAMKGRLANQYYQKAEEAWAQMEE

[10] = target: Proto-oncogene tyrosine-protein kinase Src (Homo sapiens) (UniProt P12931); assay: Inhibition of protein tyrosine kinase mediated [gamma-32P]-ATP incorporation at 1 ug/mL in src-transformed NIH3T3
[11] = target: Proto-oncogene tyrosine-protein kinase Src (Homo sapiens) (UniProt P12931); assay: Inhibition of protein tyrosine kinase mediated [gamma-32P]-ATP incorporation at 10 ug/mL in src-transformed NIH3T3
[12] = target: T3, Eukaryotic elongation factor 2 kinase (Homo sapiens); assay: Inhibition of eukaryotic elongation factor-2 kinase mediated [gamma-32P]-ATP incorporation at 1 ug/mL
[13] = target: Vascular endothelial growth factor receptor 1 (Homo sapiens) (UniProt P17948); assay: Inhibition of Vascular endothelial growth factor receptor 1 mediated [gamma-32P]-ATP incorporation at 1 ug/mL
[14] = target: Vascular endothelial growth factor receptor 1 (Homo sapiens) (UniProt P17948); assay: Inhibition of Vascular endothelial growth factor receptor 1 mediated [gamma-32P]-ATP incorporation at 0.1 ug/mL
[15] = target: T3, Eukaryotic elongation factor 2 kinase (Homo sapiens); assay: Inhibition of eukaryotic elongation factor-2 kinase mediated [gamma-32P]-ATP incorporation at 10 ug/mL; Range is 50-80
[16] = target: Vascular endothelial growth factor receptor 1 (Homo sapiens) (UniProt P17948); assay: Inhibition of Vascular endothelial growth factor receptor 1 mediated [gamma-32P]-ATP incorporation at 10 ug/mL
[17] = target: Proto-oncogene tyrosine-protein kinase Src (Homo sapiens) (UniProt P12931); assay: Inhibition of protein tyrosine kinase mediated [gamma-32P]-ATP incorporation at 10 ug/mL in src-transformed NIH3T3; range = 50-80%
[18] = target: T2, Protein kinase C (PKC) (Homo sapiens); assay: Inhibition of Protein kinase C mediated […]-ATP incorporation at 10 ug/mL; Range is 50 to 80%; assay type: protein assay
[19] = target: T3, Eukaryotic elongation factor 2 kinase (Homo sapiens); assay: Inhibition of eukaryotic elongation factor-2 kinase mediated [gamma-32P]-ATP incorporation at 10 ug/mL

Vascular endothelial growth factor receptor 1 (Homo sapiens), sequence (P17948 whole entry): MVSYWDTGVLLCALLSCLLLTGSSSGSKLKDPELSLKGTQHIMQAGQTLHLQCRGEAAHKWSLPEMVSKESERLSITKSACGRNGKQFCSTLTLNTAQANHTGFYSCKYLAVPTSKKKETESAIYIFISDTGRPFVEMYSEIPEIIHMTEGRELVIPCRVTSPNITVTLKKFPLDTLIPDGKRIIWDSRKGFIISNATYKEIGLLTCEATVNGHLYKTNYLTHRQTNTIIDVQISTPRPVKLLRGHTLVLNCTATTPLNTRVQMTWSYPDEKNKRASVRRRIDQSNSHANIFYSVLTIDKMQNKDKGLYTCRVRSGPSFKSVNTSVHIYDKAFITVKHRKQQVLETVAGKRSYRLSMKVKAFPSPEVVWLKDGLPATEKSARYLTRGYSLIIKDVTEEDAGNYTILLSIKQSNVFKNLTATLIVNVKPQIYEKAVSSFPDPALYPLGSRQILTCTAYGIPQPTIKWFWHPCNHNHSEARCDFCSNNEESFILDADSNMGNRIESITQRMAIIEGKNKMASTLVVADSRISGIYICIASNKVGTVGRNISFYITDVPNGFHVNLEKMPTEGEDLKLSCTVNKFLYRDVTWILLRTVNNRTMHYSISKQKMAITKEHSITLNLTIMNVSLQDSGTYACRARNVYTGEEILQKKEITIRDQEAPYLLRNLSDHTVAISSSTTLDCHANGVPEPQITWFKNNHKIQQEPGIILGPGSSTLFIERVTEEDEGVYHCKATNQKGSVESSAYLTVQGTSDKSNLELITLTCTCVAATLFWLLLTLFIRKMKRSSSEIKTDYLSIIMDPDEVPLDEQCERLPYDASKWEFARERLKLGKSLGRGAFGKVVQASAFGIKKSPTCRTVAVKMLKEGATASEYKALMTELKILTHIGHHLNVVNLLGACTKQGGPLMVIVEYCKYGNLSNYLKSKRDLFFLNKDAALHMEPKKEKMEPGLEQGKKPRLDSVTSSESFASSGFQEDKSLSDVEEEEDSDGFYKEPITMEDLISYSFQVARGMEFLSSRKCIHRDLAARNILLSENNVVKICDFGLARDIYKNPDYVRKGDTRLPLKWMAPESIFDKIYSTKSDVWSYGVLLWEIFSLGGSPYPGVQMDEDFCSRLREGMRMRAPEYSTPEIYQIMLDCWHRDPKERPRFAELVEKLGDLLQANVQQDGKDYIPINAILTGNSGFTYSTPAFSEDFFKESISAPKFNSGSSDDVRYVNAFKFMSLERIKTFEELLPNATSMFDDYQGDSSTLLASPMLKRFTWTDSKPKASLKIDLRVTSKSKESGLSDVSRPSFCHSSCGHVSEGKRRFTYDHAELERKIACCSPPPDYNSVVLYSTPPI
Proto-oncogene tyrosine-protein kinase Src (Homo sapiens), sequence (P12931 2-536 limits assumed): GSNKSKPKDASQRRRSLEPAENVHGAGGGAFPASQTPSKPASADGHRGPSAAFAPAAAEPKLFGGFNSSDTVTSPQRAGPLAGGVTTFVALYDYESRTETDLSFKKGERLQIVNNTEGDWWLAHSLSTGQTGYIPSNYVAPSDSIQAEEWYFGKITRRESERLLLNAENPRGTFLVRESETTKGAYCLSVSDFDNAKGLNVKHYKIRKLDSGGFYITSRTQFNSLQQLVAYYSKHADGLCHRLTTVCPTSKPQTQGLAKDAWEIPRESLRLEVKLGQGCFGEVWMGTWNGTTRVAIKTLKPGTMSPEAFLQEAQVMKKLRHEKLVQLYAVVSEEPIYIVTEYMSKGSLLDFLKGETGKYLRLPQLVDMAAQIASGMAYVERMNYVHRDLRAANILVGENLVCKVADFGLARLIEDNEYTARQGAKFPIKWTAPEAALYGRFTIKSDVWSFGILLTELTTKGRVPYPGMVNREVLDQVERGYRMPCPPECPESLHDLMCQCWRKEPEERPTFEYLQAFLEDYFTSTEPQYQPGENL

Row | Compound | inhibition [1] [%] | inhibition [2] [%] | inhibition [3] [%] | inhibition [4] [%] | inhibition [5] [%] | inhibition [6] [%] | inhibition [8] [%] | inhibition [9] [%] | inhibition [10] [%] | inhibition [11] [%] | inhibition [12] [%] | inhibition [13] [%] | inhibition [14] [%] | inhibition [16] [%] | inhibition [19] [%] | IC50 (Jurkat) [µg/mL] | IC50 (HeLa) [µg/mL] | IC50 [7] [µg/mL] | further results
1 | O=C1NCc2c1c1c3ccc(O)cc3[nH]c1c1[nH]c3ccccc3c21 | 80 | < 50 | < 50 | < 50 | < 50 | 80 | < 50 | < 50 | 80 | > 80 | < 50 | < 50 | < 50 | 80 |  | 1.34 (≈ 4.09 µM) | 5.4 (≈ 16.5 µM) | 7.6 (≈ 23.2 µM) | inhibition [15]: 80%
2 | O=C1NC(=O)c2c1c1c3ccccc3[nH]c1c1[nH]c3cc(O)c(O)cc3c21 | < 50 | < 50 | < 50 | < 50 | < 50 |  | < 50 | < 50 | < 50 |  | < 50 | < 50 | < 50 | < 50 | < 50 | 0.84 (≈ 2.35 µM) | 2.1 (≈ 5.88 µM) | 25 (≈ 70 µM) | inhibition [17]: 80%; inhibition [18]: 80%

Now from value to molecule, other results behind:

Row | inhibition [1] [%] | inhibition [2] [%] | inhibition [3] [%] | inhibition [4] [%] | inhibition [5] [%] | inhibition [6] [%] | inhibition [8] [%] | inhibition [9] [%] | inhibition [10] [%] | inhibition [11] [%] | inhibition [12] [%] | inhibition [13] [%] | inhibition [14] [%] | inhibition [16] [%] | inhibition [19] [%] | Compound | IC50 (Jurkat) [µg/mL] | IC50 (HeLa) [µg/mL] | IC50 [7] [µg/mL] | further results
3 | < 50 | < 50 |  | < 50 | < 50 | < 50 | < 50 | < 50 | < 50 | < 50 | < 50 | 50 | < 50 | < 50 | < 50 | COC(=O)c1[nH]c(C(=O)OC)c(-c2c[nH]c3ccc(O)cc23)c1-c1c[nH]c2ccccc12 [LYCOGARUBIN B] | 18 (≈ 41.9 µM) |  | > 25 | 
4 | < 50 | < 50 | < 50 | < 50 | < 50 | < 50 | < 50 | < 50 | < 50 | < 50 | < 50 | < 50 |  | < 50 | < 50 | COC(=O)c1[nH]c(C(=O)OC)c(-c2c[nH]c3ccccc23)c1-c1c[nH]c2ccccc12 [LYCOGARUBIN C] | 15.3 (≈ 37 µM) |  | > 25 | 
5 | 80 |  | < 50 | < 50 | < 50 |  | < 50 | < 50 | < 50 | 80 | < 50 | < 50 | < 50 | < 50 | < 50 | O=C1NC(=O)C(c2c[nH]c3ccccc23)=C1c1c[nH]c2ccccc12 [RO-316233] | 6.3 (≈ 19.2 µM) |  | > 25 | 

Source: ChEMBL document CHEMBL1145273, “New cytotoxic bisindole alkaloids with protein tyrosine kinase inhibitory activity from a myxomycete Lycogala epidendrum” (Bioorg Med Chem Lett, 2005)
